Columns and labels:
[1] = tested on: Lewis lung carcinoma (LLC); experiment: Syngeneic Lewis lung carcinoma model: tumor growth after i.t. Ad-RTS vectors with oral AL; format: in vivo, mice; conditions: oral AL alone in feed at 1000 ppm (~225 mg/kg/day)
Text: Current cancer immunotherapies have provided limited success in the clinic and innovative strategies are required to further enhance the effectiveness of an anti-tumor immune response. This study assessed anti-tumor activity utilizing intratumoral (i.t.) administration of adenovirus (Ad) with the novel Rheoswitch Therapeutic System® (RTS®), an inducible promoter system, for regulated expression of murine IL-12 or IFNa. Oral administration of a small molecule activator ligand (AL), INXN-1001, regulates the expression of IL-12 in Ad-RTS-mIL-12 and IFNa in Ad-RTS-mIFNa. The regulated expression and therapeutic benefit of IL-12 and IFNa from i.t. administered Ad-RTS-mIL-12 and Ad-RTS-mIFNa, either alone or in combination, was examined in syngeneic Lewis lung carcinoma (LLC) and syngeneic mammary carcinoma (4T1) models.
In contrast, i.t. injection with 10^10 vp Ad-RTS-mIL-12 or Ad-RTS-mIFNa and daily oral AL led to significant tumor growth inhibition by day 25 (72 and 71%, respectively; p<0.05). […] Future studies will investigate the mechanism by which both IL-12 and IFNα exert their anti-tumor effect in the above tumor models.
LLC and 4T1 cells were transiently transduced with Ad-RTS-murine IL12 or Ad-RTS-murine IFNa at a MOI of 100. […] Supernatants were collected at 48 h and cytokine levels assessed by ELISA. n=3, mean±s.d. […]

murine melanoma, B16F0 = experiment: Bilateral B16F0 melanoma model: tumor volume after intratumoral Ad-RTS-mIL12; format: in vivo, C57BL/6 mice; conditions: day 21 post cell inoculation; activator ligand chow 1000 mg/kg alone, no vector
Text: We investigated if the treatment of a local tumor with Ad-RTS-mIL12 (resulting in local tumor growth regression) would also lead to anti-tumor activity in the distant tumor. Toward this goal, we developed melanoma tumors on both flank regions of immunocompetent mice (C57BL/6) and treated the tumor on the right flank with Ad-RTS-mIL12 in the presence of activator ligand.
Six- to eight-week-old female C57B1/6 mice were purchased from Harlan (USA). Animal care and experimental procedures were performed according to Intrexon's Institutional Animal Care and Use Committee guidelines.
The murine melanoma (B16F0) cells were purchased from ATCC (Manassas, Va.). B16F0 cells were grown in Dulbecco's modified Eagle's medium (ATCC, Manassas, Va.), The DMEM was supplemented with heat-inactivated fetal calf serum (FCS) 10% v/v, 2-mM L-glutamine (Atlanta Biologicals, Inc, Lawrenceville, Ga.), 100 IU/ml […], and 100 μg/ml streptomycin. The cells were grown at 37° C. in 5% CO2. All cell lines were routinely tested and found to be free of mycoplasma. […]
Vector was administered intratumorally on Day 12 and Day 19 post tumor cell inoculation. Tumor size and body weight of each mouse were monitored three times a week until the end of the study. […]
The tumor volumes were calculated using the formula, L×W^2/2. […]

[2] = Plasma HuEPO expression as a function of activator ligand dose in chow after IM AAV-HuEPO (0034A); format: in vivo
Description: Animals were anesthetized, their quadriceps were visualized and the injection site sterilized. The mice were injected with vector using a 0.5 ml insulin syringe and a 29.5 gauge needle. Each animal was injected with total of 10^11 virus genomes in a 100 μl volume. After the procedure, the animals were placed in their cage and observed for normal ambulation.
Plasma samples were assayed for the presence of human erythropoietin using Enzyme Linked Immunosorbent Assay (ELISA) (StemCell Technologies, #01630).
Animals were bled for baseline HCT levels, followed by IM administration of 10^11 AAV-HuEPO viral genomes per animal (0034A). Animals received activator ligand-containing chow, with activator ligand concentrations 1000 mg/kg (18-1000), 250 mg/kg (18-250), 100 mg/kg (18-100), 50 mg/kg (18-50), or 0 mg/kg (18-0) starting on the day of AAV administration. Control animals received either vector administration and normal chow (no activator ligand, 18-0), or they received vehicle-alone IM administration (saline) with (18-1000) or without (18-0) activator ligand. HCT and HuEPO expression levels were measured in all groups every 7 days.

Row | Compound | inhibition of tumor growth compared to control, untreated tumors [1] | average tumor volume, right flank tumor (murine melanoma, B16F0) | plasma HuEPO expression ([2]; ligand chow 50 mg/kg (18-50), 14 and 21 days, 0034A IM) | plasma HuEPO expression ([2]; ligand chow 50 mg/kg (18-50), 7 days, 0034A 10^11 viral genomes IM, limit of sensitivity of the assay) | plasma HuEPO expression ([2]; ligand chow 100 mg/kg (18-100), 7 days, 0034A IM)
1 | CCC[C@@H](N(NC(=O)c1cccc(OC)c1CC)C(=O)c1cc(C)cc(C)c1)C(C)(C)C [AL] | did not result in significant inhibition of tumor growth | – | – | – | –
2 | CCC[C@@H](N(NC(=O)c1cccc(OC)c1CC)C(=O)c1cc(C)cc(C)c1)C(C)(C)C [activator ligand, (R)-3,5-Dimethyl-benzoic acid N-(1-tert-butyl-butyl)-N′-(2-ethyl-3-methoxy-benzoyl)-hydrazide] | – | 924±80 mm^3 | detectable | ≤ 8 mU/ml | lower HuEPO expression
